Assays:
selected APEC strains = experiment: Sensitivity of all selected APEC strains to drugs (disk diffusion) and to BAFACOL, summary; assay type: cell-based, Escherichia coli; details: all 12 selected strains
Procedure: BAFACOL preparation with the total titer of 1×10^8 PFU/ml was used in the tests.
(§1) The drug sensitivity of APEC strains was tested with a disk diffusion method, according to CLSI recommendations (Clinical Laboratory Standards Institute; 2008 document: Performance standards for antimicrobial disk and dilution susceptibility tests for bacteria isolated from animals; approved standard, 3rd Ed. CLSI document M31-A3. Clinical and Laboratory Standards Institute, Wayne, PA.). The disk diffusion method used disks soaked with 10 selected drugs (Table 9).
The other tested APEC strains were resistant to 6-8 test antimicrobial drugs.

E. coli strain 130PP2017 = experiment: Sensitivity of APEC strain to drugs (disk diffusion) and to BAFACOL; assay type: cell-based, Escherichia coli; details: CLSI, disk content as in column head
Procedure: as §1, with “[…]-A3.” for “M31-A3.”

APEC strains = details: nearly 150 APEC strains, in vitro [Oliviera A. et al., 2009]; cited from earlier work

SMILES	Drug sensitivity of all selected APEC strains (selected APEC strains)	also measured
CC1(C)S[C@@H]2[C@H](NC(=O)[C@H](N)c3ccccc3)C(=O)N2[C@H]1C(=O)O [Ampicillin]	resistant	
CN[C@@H]1[C@@H](O[C@H]2O[C@H](CO)[C@@H](N)[C@H](O)[C@H]2O)OC2C[C@@H](N)[C@@H](O[C@H]3[C@H](O)[C@@H](O)[C@H](N)C[C@@H]3N)OC2[C@@H]1O (some centres unmarked) [Apramycin]		Sensitivity to drug (R/I/S) (E. coli strain 130PP2017): sensitive
CCn1cc(C(=O)O)c(=O)c2ccc(C)nc21 [Nalidixic acid]	resistant	
[H]/N=C(/N)N[C@H]1[C@H](O)[C@@H](O)[C@H](O[C@@H]2O[C@@H](C)[C@](O)(C=O)[C@H]2O[C@@H]2O[C@@H](CO)[C@H](O)[C@@H](O)[C@@H]2NC)[C@@H](N/C(N)=N\[H])[C@@H]1O [Streptomycin]	resistant	
CCN1CCN(c2cc3c(cc2F)c(=O)c(C(=O)O)cn3C2CC2)CC1 [enrofloxacin]		Share of studied APEC strains that were sensitive (APEC strains): more than 50%

Reference: patent publication US20240050498A1, “SYNERGISTIC COMPOSITION OF PHAGES AND ITS FORMATION METHOD” (Proteon Pharmaceuticals S.A., priority 2020, published 2024)
